In patent publication US10441568B2, “Nitroxide radicals for the treatment of diseases of the respiratory tract” (priority 2015, dated 2019):
Entries after “also recorded” stand apart in the source; their conditions may differ.

Experiments:
[1] = Nitroxide concentration measurement by EPR in mouse blood and tissue; type: in vivo; conditions: mice
Description: Electron paramagnetic resonance (EPR) spectroscopy was used to determine residual levels of nitroxide in mouse tissue. Blood samples or tissue samples were diluted with 0.5 ml phosphate buffer (40 mM, pH 7.4) or water, inserted into a flexible capillary placed in a quartz tube installed within the EPR spectrometer cavity and assayed for residual nitroxide. A similar procedure was used to determine the residual nitroxide in tissue homogenates of various organs, which were corrected for blood contamination spectrophotometrically by following the absorption of oxyhemoglobin at 400-600 nm. Measured EPR signals were compared to those of a nitroxide standard solution.
In order to determine total hydroxylamine and nitroxide concentrations, 2 mM K3Fe(CN)6 was added to samples in order to oxidize hydroxylamines to the respective nitroxide, and the nitroxide level was determined by EPR spectroscopy as described hereinabove.
(§1) Control and experimental groups contained 10 mice each. The effects of the nitroxides were investigated by feeding the mice ad libitum a diet of nitroxide-containing chow (1 weight percent) during both ovalbumin (OVA)-induced sensitization and challenging periods (days −2-19), during the sensitization period (days −2-11) or challenge period (days 13-19). Nitroxide-containing chow were prepared by dissolving 500 grams chow in a minimum volume of water containing 5 grams nitroxide and 5 grams commercial chicken soup powder, preparing the chow and drying it at 37° C. (animals were reluctant to eat nitroxide-containing chow until chicken soup powder was added).
(§2) 3-CP was also administered using 3 daily intraperitoneal (IP) injections (200 μl, 0.15 M, ˜300 mg/kg) 0.5 hour prior to the challenge with OVA aerosol, or by nasal instillation (50 μl, 0.3 M, ˜150 mg/kg) twice a day 0.5 hour prior to the challenge with OVA aerosol and 6 hours later without exceeding its maximally tolerated dose, which has been previously established to be 300-500 mg/kg. Both 3-CP and TPL were non-toxic when administered orally or via IP injection to untreated OVA-challenged mice for 22 days.

[2] = Toxicity / maximally tolerated dose in mice; type: in vivo; conditions: administered orally or via IP injection to untreated OVA-challenged mice for 22 days
Description: as §2

[3] = tested on: ovalbumin-induced murine model of asthma; assay: Inflammatory cell counts in BAL fluid in OVA asthma model; type: in vivo, BALB/c mice
Description: (§3) All experimental procedures were carried out in accordance with the NIH Guidelines for the Care and Use of Laboratory Animals. Specific pathogen-free (SPF) male BALB/c mice (6-7 weeks of age, 18-22 grams), routinely screened serologically for relevant respiratory pathogens, were maintained in an animal housing facility for 1 week before use and given access to food and water ad libitum. Animals were randomly assigned to the indicated experimental groups, and sensitized with two intraperitoneal (IP) injections (20 μg ovalbumin (OVA) emulsified in 2 mg aluminum hydroxide (an adjuvant) in 200 μl phosphate buffer saline (PBS), pH 7.4), on days 1 and 10.
(§4) After another week, the animals were challenged by exposure to ovalbumin (OVA) aerosol (1%, w/v, in PBS) for 30 minutes each day on days 17, 18 and 19, in order to elicit an inflammatory reaction in the lungs characterized by airway hyper-responsiveness (AHR), an influx of inflammatory cells (particularly eosinophils), and increased pulmonary levels of various cytokines and transforming growth factors, protein nitration and lipid peroxidation.
The features of allergic inflammation typically reached their peak a day or two after the final exposure. Mice were then subjected to one of the following treatments: (i) sham-sensitization plus challenge with PBS; (ii) positive control-sensitization plus challenge with OVA; (iii) sensitization plus challenge with OVA and various indicated treatments (e.g., with nitroxide or dexamethasone), including different modes (oral, IP, intranasal, inhalation), time windows (sensitization stage, challenge stage, both stages and after the last challenge), and doses of nitroxide administration.
(§5) Bronchoalveolar lavage (BAL) fluid (also referred to herein as “BALf”) and bronchial submucosal inflammation are characteristic features of asthma. Mice were euthanized with an overdose of 50 mg/kg pentobarbital and ice-cold phosphate buffer saline (PBS) (0.6 ml) was instilled into the lungs. BAL fluid was obtained by three aspirations via tracheal cannulation, centrifuged, and the supernatant collected and stored at −70° C. Cell pellets were re-suspended in PBS and 100 μl aliquots placed onto slides and centrifuged (200 g, 4° C., 10 minutes) in a cytospin machine. Induction of oxidative stress was evaluated using a 2′,7′-dichlorofluorescein fluorescence assay, and total IgE, IgG2a, panel of cytokines, transforming growth factors, collagen, protein nitration and lipid peroxidation were measured using commercial kits according to the manufacturer's recommendations. A Sircol™ collagen assay kit was obtained from Biocolor Life Sciences Assays, a protein nitration assay kit was obtained from Abcam, and other assay kits were obtained from PeproTech Asia.
as §1
as §2, with “days. […]” for “days.”

[4] = tested on: IL-5; assay: IL-5 level in OVA asthma model; type: in vivo, BALB/c mice; conditions: for IL-5 level: lung tissue (table title)
Description: as §3, §4, §5
The efficacy of oral administration of 3-CP (1 weight percent in chow) during the sensitization period and/or challenge period was then compared to IP injection (˜300 mg/kg, 0.5 hour before the OVA challenge) or intranasal instillation (˜150 mg/kg, 0.5 hour before the OVA and 6 hours later) of 3-CP, as well as to dexamethasone treatment (1 mg/kg, 3 daily IP injections, 0.5 hour prior to the challenge with OVA aerosol).
In order to assess the effect of 3-CP on inflammatory signaling pathways, […] to procedures described hereinabove, upon oral, intranasal or IP administration of 3-CP.

[5] = nasal instillation (50 μL, 0.3 M), FIG. 2
[6] = oral administration (1 weight percent nitroxide in chow), FIG. 1
[7] = stated after the oral administration data
[8] = oral, 1 weight percent in chow, FIG. 4

With `CC1(C)CC(C(N)=O)C(C)(C)N1[O]` (stereo not drawn) [3-CP, 3-Carbamoyl-2,2,5,5-tetramethyl-pyrrolidin-1-oxyl] the “residual concentration of the respective hydroxylamine compared with the nitroxide” value ([1]; data not shown) was “higher than those of the therapeutically active nitroxide free radical”, the “absolute concentration in lung tissue relative to blood” value [1, 5] was “about twice the concentration in the blood” and the “half-life of reduction/clearance from blood and lung tissue” value [1, 5] was “about 80 minutes”. For the same compound, the “time course of residual concentration in blood and lung tissue” value [1, 5] was “decreased exponentially with time”, the “blood concentration, 3-CP compared with TPL” value [1, 6] was “higher than TPL blood concentrations” and the “residual concentration of nitroxide in blood” value [1, 6] was “detectable levels”. The “residual concentration in the lungs compared with other organs” value [1, 7] was “significantly higher than in the heart, spleen, liver, kidney and brain”, the “residual concentration in the lungs relative to that in the blood” value [1, 7] was “about 65%” and the toxicity [2] was “non-toxic”. The “levels of inflammatory cells, oral 3-CP in both periods compared with other regimens” value ([3]; oral 1 weight percent in chow during sensitization and challenge periods, FIG. 5) was “more effective than IP injection or intranasal instillation of 3-CP, oral administration of 3-CP during the sensitization period or challenge period alone, or treatment with dexamethasone; also recorded: more effective than treatment with dexamethasone”, the “BAL inflammatory cell/eosinophil count attenuation, 3-CP compared with TPL” value [3, 8] was “considerably more effective than TPL” and the “effect on OVA-induced increase in total inflammatory cell and eosinophil counts in BAL fluid” value [3, 8] was “attenuated the increase in total inflammatory cell counts and eosinophil counts”. The IL-5 level ([4]; OVA IP-C: 3-CP intraperitoneal during challenge) was 2.08 ng/mg, the IL-5 level ([4]; OVA oral-C: 3-CP oral during challenge) was 2.40 ng/mg and the IL-5 level ([4]; OVA oral-S&C: 3-CP oral during sensitization and challenge) was 1.96 ng/mg. For the same compound, the IL-5 level ([4]; OVA oral-S: 3-CP oral during sensitization) was 3.16 ng/mg, the “effect on OVA-induced increase in the level of IL-5” value ([4]; lung tissue, FIG. 7B and Table 1) was “inhibited” and the “modulating IL-5 level, oral compared with IP 3-CP” value ([4]; oral administration vs IP injection) was “consistently more effective than IP injection of 3-CP”.
